Test results taken from patent US12648951B2, “Methods of treating castration-resistant prostate cancer with glucocorticoid receptor antagonists, androgen deprivation therapy and anti-androgen receptor therapy” (University of Chicago, priority 2012, dated 2026).
Like-named read-outs stand apart in the source and are kept apart here.

Experiments:
SGK1 = experiment: Expression of SGK1 in prostate cancer cell lines; type: cell-based, human; settings: MDV3100, and addition of Dex
Description: (§1) GR Antagonist Studies. […]. SGK1-FLAG or vector was stably expressed and cellular viability, secreted PSA, and protein lysates were collected.

[1] = test system: LNCaP cells engineered to express elevated levels of AR; settings: cited from earlier work
[2] = test system: LAPC4 prostate cancer cell line; experiment: Cell survival of LAPC4 cells grown with MDV3100, R1881, Dex, Mif, GSK650394; type: cell-based, human
Description: as §1

breast cancer cell = settings: cited from earlier work
CWR-22RV1 cell line = experiment: GR expression following MDV3100 treatment, CWR-22RV1; type: cell-based, human
[3] = test system: prostate specific antigen serum levels; settings: after a month of taking the medicine; cited from earlier work
[4] = test system: CWR-22RV1 (22RV1) prostate cancer cell line; experiment: Cell survival of CWR-22RV1 cells grown with MDV3100, R1881, Dex, GSK650394; type: cell-based, human
Description: as §1

[5] = test system: castration-resistant prostate cancer patients who have received prior docetaxel; settings: cited from earlier work
[6] = test system: metastatic castration-resistant prostate cancer patients; settings: cited from earlier work
CRPC cell lines [7] = experiment: GR expression level in CRPC cell lines; type: cell-based, human; settings: addition of MDV3100, within 3-7 days
LAPC4 cell line = experiment: GR expression following MDV3100 treatment, LAPC4; type: cell-based, human
[8] = at 9 months; cited from earlier work
advanced prostate cancer = settings: cited from earlier work
[9] = cited from earlier work
CRPC cell lines [10] = experiment: Proliferation / growth of castrate-resistant prostate cancer cell lines; type: cell-based, human
Description: as §1

## CNC(=O)c1ccc(N2C(=S)N(c3ccc(C#N)c(C(F)(F)F)c3)C(=O)C2(C)C)cc1F [MDV3100]
SGK1
  Expression of SGK1: reduced
[1]
  expression of androgen dependent genes PSA and TMPRSS2: down regulated
[2]; LAPC4
  reduction in cell death compared to R1881+Dex control: 26%
[2]; LAPC4, MDV3100 with vs without Dex
  cell survival compared to R1881 control: 47%
[2]; SGK1-Flag over-expressing LAPC4 cells
  survival under MDV3100 treatment: 61%
[2]; vector control LAPC4 cells
  survival under MDV3100 treatment: 24%
Breast cancer cell
  breast cancer cell growth: inhibits breast cancer cell growth
CWR-22RV1 cell line
  GR expression: increased
[3]
  decrease in prostate specific antigen serum levels: ≤ 89%
[4]; MDV3100 with vs without Dex
  cell survival: 51%
[5]; AFFIRM interim analysis
  lived longer than those taking placebo: approximately 5 months
[5]; in vivo
  median survival after progression on MDV3100: under 1 year
[5]; phase III, reported in 2012
  survival advantage: 4-5 month
[6]; chemo-naive patients
  Median time to radiographic progression: 56 weeks
  patients with PSA level decreased more than 50 percent: 40/65
[6]; chemotherapy-treated patients
  patients with PSA level decreased more than 50 percent: 38/75
[6]; post-chemotherapy population
  Median time to radiographic progression: 25 weeks
CRPC cell lines [7]
  GR expression level: significantly increases
LAPC4 cell line
  GR expression: increased

## O=C(O)c1ccc(-c2c[nH]c3ncc(-c4ccccc4)cc23)cc1C1CCCC1 [GSK650394]
[2]; LAPC4, GSK650394 added to MDV3100+Dex
  % survival relative to R1881+Dex control: 19%
[4]; results similar to LAPC4
  cell survival following treatment with the SGK1 inhibitor: impaired

## CCNC(=O)[C@@H]1CCCN1C(=O)[C@H](CCCNC(=N)N)NC(=O)[C@H](CC(C)C)NC(=O)[C@@H](CC(C)C)NC(=O)[C@H](Cc1ccc(O)cc1)NC(=O)[C@H](CO)NC(=O)[C@H](Cc1c[nH]c2ccccc12)NC(=O)[C@H](Cc1c[nH]cn1)NC(=O)[C@@H]1CCC(=O)N1 [leuprolide]
[8]
  Overall survival: 90.5%
Advanced prostate cancer; human, in vivo
  cardiovascular toxicity: lower incidence of cardiovascular toxicity
Advanced prostate cancer; monthly depot
  reducing serum testosterone to castrate levels: equivalent to 3 mg of DES

## CC(C)C[C@H](NC(=O)[C@@H](Cc1c[nH]c2ccccc12)NC(=O)[C@H](Cc1ccc(O)cc1)NC(=O)[C@H](CO)NC(=O)[C@H](Cc1c[nH]c2ccccc12)NC(=O)[C@H](Cc1c[nH]cn1)NC(=O)[C@@H]1CCC(=O)N1)C(=O)N[C@@H](CCCNC(=N)N)C(=O)N1CCC[C@H]1C(=O)NCC(N)=O [triptorelin]
[8]
  Overall survival: 97%

## CC(C)C(=O)Nc1ccc([N+](=O)[O-])c(C(F)(F)F)c1 [flutamide]
[9]; doses of 125 mg/day or less
  hepatic impairment: No cases of hepatic impairment
[9]; warnings from patients using 750 mg daily
  hepatotoxicity: fatal hepatotoxicity has been reported

## CC#C[C@]1(O)CC[C@H]2[C@@H]3CCC4=CC(=O)CCC4=C3[C@@H](c3ccc(N(C)C)cc3)C[C@@]21C [Mif, mifepristone]
CRPC cell lines [10]
  proliferation with addition of a GR inhibitor to MDV3100 under GR activation: restoring the decrease in proliferation
[2]; LAPC4, addition of Mif alone
  change in survival compared to R1881+Dex control: no change in survival
